Source: US20200316213A1, “MACROMOLECULAR PLATFORM FOR TARGETING SCAVENGER RECEPTOR A1” (THE UNITED STATES OF AMERICA, AS REPRESENTED BY THE …, priority 2017, published 2020)

Experiments:
[1] = male, Sprague-Dawley, rat, in vivo, iv, 10 mg/kg
[2] = in vivo; details: male, Sprague-Dawley, rat, iv, 10 mg/kg
[3] = molecular target: T1, scavenger receptor A1 (Mus musculus, UniProt P30204); test: Competitive inhibition of polymer-488 cell uptake by poly I / poly C in Raw 264.7 macrophages; type: cell-based; details: for inhibition of scavenger receptor interaction of polymer-488 (fluorescence): various concentrations of polymer-488 with inhibitor, Raw 264.7 macrophages (FIG. 3); for inhibition of polymer-488 fluorescence: various inhibitor concentrations, polymer-488 concentration constant, 37° C. 3 hours (FIG. 4)
T1 construct: endogenous in cells; host or cells: Raw 264.7 macrophages
T1 sequence (P30204 1-458): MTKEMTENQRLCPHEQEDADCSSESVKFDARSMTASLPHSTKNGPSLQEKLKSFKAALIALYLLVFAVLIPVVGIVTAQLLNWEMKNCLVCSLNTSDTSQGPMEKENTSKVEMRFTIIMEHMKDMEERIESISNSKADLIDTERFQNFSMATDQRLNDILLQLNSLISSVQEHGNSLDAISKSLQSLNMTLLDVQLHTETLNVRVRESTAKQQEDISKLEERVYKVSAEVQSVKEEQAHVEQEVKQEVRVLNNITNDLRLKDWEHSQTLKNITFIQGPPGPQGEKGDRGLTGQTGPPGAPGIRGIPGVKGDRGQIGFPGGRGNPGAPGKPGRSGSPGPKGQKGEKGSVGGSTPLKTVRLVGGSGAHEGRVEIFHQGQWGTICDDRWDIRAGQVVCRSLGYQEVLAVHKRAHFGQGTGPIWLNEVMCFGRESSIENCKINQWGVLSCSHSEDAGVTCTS
Protocol: The fluorescently labelled poly(L-lysine succinylated) was also tested for cell uptake in a macrophage cell line Raw 264.7 in the presence of competitive inhibitors and relevant controls. […] At higher concentrations of polymer-488, fluorescence is seen due to competing off the poly I.
In a follow up study, cells were treated with various concentrations of either poly I or poly C while polymer-488 concentration remained constant. In this study, Raw 264.7 cells were incubated overnight at 400,000 cells/mL. The cells were treated with various concentrations of polymer-488 and either 200 μg/mL poly I, 200 μg/mL poly C, or no inhibitor. The cells were incubated at 37° C. for 3 hours, washed 3 times with media, and fluorescence measured.

Tlast [1] [h]	Tmax [2] [h]	Cmax ([2]; Cmax) [ng/g]	inhibition of polymer-488 fluorescence [3]	Compound	inhibition of scavenger receptor interaction of polymer-488 (fluorescence) [3]
96	4	86.7		Nc1nc(=O)n([C@@H]2CS[C@H](CO)O2)cc1F [Emtricitabine, emtricitabine]	
			virtually no inhibition of fluorescence	polycytidylic acid [poly C]	not with poly C
			dose-dependent inhibition	polyinosinic acid [poly I]	inhibition of scavenger receptor interaction
